Marks after values point to notes of the source that are not given here.

In assay [1] the test system is fat-fed C57BL/6J mice. Description: Fat-fed C57BL/6J mice, obesity and metabolic parameters. The format is in vivo. The following applies: HF diet + 50 mg/kg/day. How it is done:
At the end of that time the animals had gained 16g, 22 g and 20.5 g, respectively (FIG. 3). […] Analysis of whole body triglyceride content and protein content were performed as described in Moller et al (Endocrinology 137:2397-2405, 1996). […] Thus, treatment with the PPARγ antagonist caused relative decreases in body adiposity and increases in lean body mass in fat fed mice. The plasma levels of glucose, triglycerides and free fatty acid levels were all increased in the HF group relative to the LF group (see Table below).

The subject of assay [2] is ob/ob mice. Kind of assay: ob/ob mice, plasma insulin. It is filed as in vivo. The following applies: once daily dosing. An excerpt:
The PPAR-gamma antagonists/partial agonists are therefore effective in treating the obesity and other symptoms that generally occur in non-insulin dependent diabetes, such as elevated levels of glucose, triglycerides, and insulin in the plasma.

For assay [3], the system named is 3T3-L1 cells. Description: 3T3-L1 preadipocyte differentiation (aP2 expression). The format is cell-based. The following applies: Mus musculus, 3T3-L1, 120 h; 100 nM rosiglitazone, 5 days; read-out: IC50, block of rosiglitazone stimulated aP2 expression. On the procedure: 3T3-L1 cells were obtained from American Type Culture Collection. Passage numbers 3 to 9 were used in all the studies. Monolayer fibroblasts were maintained in medium A (Dulbecco's modified Eagle's medium with 10% fetal calf serum, 100 units/ml penicillin, and 100 μg/ml streptomycin) at 37° C. in 5% CO2. […] Total RNA was prepared using Ultraspec™ RNA isolation system (Biotecx, Houston, Tex.). RNA concentration was quantitated by absorbance at 260 nm. Equal amount of RNA samples were denatured in formamide/formaldehyde and applied to Hybond™-N membranes (Amersham) using a slot blot apparatus (BioRad). Prehybridization was performed at 42° C. for 1-3 h in 40-50% formamide in a solution containing 25 mM sodium phosphate, pH 7.4, 0.9 M sodium chloride, 50 mM sodium citrate, 0.1% each of gelatin, ficoll, and polyvinylpyrollidone, 0.5% SDS, and 100 μg/ml denatured salmon sperm DNA. Hybridization was carried out at the same temperature for 20h in the same solution with ^32P-labeled aP2 cDNA probe (2×10^6 cpm/ml). After washing the membranes under appropriately stringent conditions, the hybridization signals were analyzed with a Phosphorlmager (Molecular Dynamics).

Take `O=C(O)c1c(Sc2ccccc2)c2cc(Cl)ccc2n1Cc1ccc(Cl)cc1` [Compound I, 1-(p-chlorobenzyl)-5-chloro-3-thiophenylindole-2-carboxylic acid]: the body weight gained in assay [1] (72 days) is given as 20.5 g. For the same compound, in assay [1] (mean +/- SE of 10 mice), the “Plasma free fatty acids” value is on record as 0.536 +/− 0.02* mM, the Plasma glucose was 145.6 +/− 4.1* mg/dl, the Plasma triglycerides was 71.4 +/− 4.1** mg/dl and the Serum insulin turned out to be 1.35 ± 0.21 ng/mL. Besides, the “reduction in elevated levels of mean plasma insulin” value in assay [2] is 30-50%. Besides, the concentration for half-maximal inhibition (IC50) – broadly, the concentration needed to halve the response being measured – in assay [3] was about 300 nM.

These data come from patent publication US20030032581A1, “Pharmaceuticals for treating obesity” (priority 1999, published 2003).
